In article PMC7402352, “Discovery of Novel Non-Steroidal Cytochrome P450 17A1 Inhibitors as Potential Prostate Cancer Agents” (International Journal of Molecular Sciences, 2020):
Entries after “also recorded” stand apart in the source; their conditions may differ. Read-outs that look alike come from different tables or passages of the source.

What was measured:
CYP2D6 = target: T1, CYP2D6 (Homo sapiens, UniProt P10635); experiment: CYP2D6 dextromethorphan metabolism inhibition assay; format: biochemical; conditions: dextromethorphan metabolism
T1 construct: made in house
Description: (§1) In human drug metabolism, CYP3A4 and CYP2D6 are dominant enzymes and undesired inhibition could potentially alter the pharmacokinetics and reduce the clearance of co-administered drugs. CYP3A4 is particularly important in this respect, with a large and flexible active site able to accommodate many different molecular scaffolds including steroids. […] The most similar steroidogenic human enzyme to CYP17A1 is CYP21A2, which also uses progesterone as a substrate, in this case to form 21-hydroxyprogesterone. Undesired inhibition of this enzyme could adversely impact the biosynthesis of the corticosteroids cortisol and aldosterone which control stress/immune responses and blood pressure, respectively. Abiraterone itself has this liability and is thus co-administered with the synthetic corticosteroid prednisone. […] However, at the same time it might be possible to achieve similar results by altering the nitrogen atom position in the pyridine fragment in compound 1e. Further optimization of 1c is required to eliminate off-target effects on the steroidogenic human CYP21A2 enzyme to prevent disruption of glucocorticoid and mineralocorticoid biosynthesis in vivo. This might be achieved by adding substituents compatible with the CYP17A1 active site topography forming interactions with the bordering Arg239 and/or Asp298 residues, but incompatible with the more spatially constrained CYP21A2 active site, as has been accomplished for abiraterone.
(§2) Selected inhibitors were tested for off-target inhibition of purified recombinant human CYP3A4 nifedipine metabolism and CYP2D6 dextromethorphan metabolism as described with minor modifications. CYP3A4 nifedipine (purchased from Sigma-Aldrich, St. Louis, MO, USA) activity assays were carried out with 200 µM nifedipine for 30 min. The CYP2D6 dextrometorphan (purchased from Sigma-Aldrich, St. Louis, MO, USA) assays were carried out with 100 µM DXM. Inhibition of steroidogenic cytochrome P450 21A2 progesterone 21-hydroxylation was evaluated as reported.
(§3) IC50 curves for compounds inhibiting CYP17A1 progesterone 17-hydroxylation (black circles), […]

[1] = target: T2, human cytochrome P450 17A1 (Homo sapiens, UniProt P05093); experiment: Spectral binding assay (CYP17A1 ligand binding); conditions: purified recombinant human CYP17A1, spectral titration
T2 construct: made in house
T2 sequence (P05093 1-508): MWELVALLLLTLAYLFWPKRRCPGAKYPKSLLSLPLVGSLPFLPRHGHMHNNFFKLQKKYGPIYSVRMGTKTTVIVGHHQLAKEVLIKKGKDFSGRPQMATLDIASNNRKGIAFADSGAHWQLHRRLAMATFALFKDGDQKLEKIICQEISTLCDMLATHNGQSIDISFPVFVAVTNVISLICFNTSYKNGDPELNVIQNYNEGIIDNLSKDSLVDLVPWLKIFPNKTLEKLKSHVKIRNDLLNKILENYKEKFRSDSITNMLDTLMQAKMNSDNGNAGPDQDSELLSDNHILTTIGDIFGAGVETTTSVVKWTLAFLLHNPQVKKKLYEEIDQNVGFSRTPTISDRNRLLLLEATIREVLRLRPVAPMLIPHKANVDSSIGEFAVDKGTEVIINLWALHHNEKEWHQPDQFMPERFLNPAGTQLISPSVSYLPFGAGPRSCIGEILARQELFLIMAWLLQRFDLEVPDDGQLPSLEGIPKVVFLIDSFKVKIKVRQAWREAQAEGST
Description: The target compounds were initially tested for binding mode and affinity for CYP17A1 using a spectral binding assay. This assay can distinguish the mode of interaction, with a blue shift of the Soret absorbance occurring when ligand displaces water from the heme iron to generate a five-coordinate iron without direct coordination to the heme iron (type I, similar to most substrates) or a red shift of the Soret peak when the ligand nitrogen replaces the water to directly interact with the six-coordinate iron (type II, similar to many inhibitors). […] This 3-pyridyl fragment is also found in abiraterone.
Initial ligand binding was evaluated by measuring absorbance changes in CYP17A1 upon addition of ligands. Purified recombinant human cytochrome P450 17A1 enzyme (1 µM) in buffer (25 mM potassium phosphate, pH 7.4, 200 mM NaCl, 20% glycerol) was titrated with ligands. Ligands were dissolved in DMSO and added to three concentrations (500, 1000, and 2000 nM). The spectral intensity difference (ΔA) was measured as difference between […]. The Amin was typically at ~410 nm and Amax at ~440 nm for the type II changes observed for these ligands.
S2. Binding spectra and CYP IC50 curves
Difference spectrum of cytochrome P450 17A1 with vs. without compound 1a (2 µM).
All compounds are type II and display the same shift as the example above.
(§4) (1 picture or pasted object on this page, not shown here)

PC3 cells = experiment: Prostate cancer cell line proliferation screening (GR), PC3; format: cell-based, human; conditions: 10 µM, 48 h
Protocol: Next, we tested the effect of compounds 1a–1e on prostate cancer derived cell lines. The anti-proliferative activity was determined in vitro by adding 10 µM compound to each of three prostate cancer cell lines (LNCaP, DU145, and PC3). As an additional comparison, immortalized non-cancerous fibroblasts (BJ hTERT) were used. These cancer cell lines are considered the classic standard of PCa cell culture. Since these cell lines grew at very different rates, inhibition of growth rate (GR) was used as a metric. All compounds except 1e were non-toxic to non-cancerous cells. Compounds 1a and 1c were both cytotoxic in the PC3 cell line (Figure 3). […] DU145 cells were weakly affected by only compound 1e with growth rate inhibition more than 50% (GR < 0.5). […] We observed substantial susceptibility of PC3 cells in comparison to DU145 (see Supplementary Materials S3 for GR50 in PC3 cells). These two cell lines are similar in many respects. […] However, they differ in their origins, PC3 being derived from a lumbar vertebral metastatic prostate tumour and DU145 from a brain metastatic prostate tumour. […] By observing a uniform response of all cell lines used in the present study to 5-fluorouracil (5-FU), we were able to rule out any general cell dependent variability in chemosensitivity towards anti-metabolite treatment. Still, chemoresistance in PC3 and DU145 may be mediated by other mechanisms. While AR also functions as a tumour suppressor inhibiting cell proliferation, it is possible in AR deprived cells to observe growth inhibition when cells retain necessary coregulators. […]
(§5) Cells were grown to approximately 80% confluence in 150 mm culture dishes and harvested by 0.25% Trypsin/EDTA (Gibco) treatment. Released cells were counted and seeded in 384 well plates (Falcon, ref. 353962) in 30 µl media with a cell count of 1500 (BJ cells, PC-3) or and 3500 (LNCaP (Lund)) cells per well. […] The cells incubated for 24 h, after which cell counts in wells of one 384-well plate were determined as described below (time zero). […]

human CYP3A4 = target: T3, human CYP3A4 (Homo sapiens, UniProt P08684); experiment: CYP3A4 nifedipine metabolism inhibition assay; format: biochemical; conditions: concentrations up to 10 µM
T3 construct: made in house
Description: as §1, with “Further optimization of 1c is required to eliminate off-target effects on the steroidogenic human CYP21A2 enzyme to prevent disruption of glucocorticoid and mineralocorticoid biosynthesis in vivo. This might be achieved by adding substituents compatible with the CYP17A1 active site topography forming interactions with the bordering Arg239 and/or Asp298 residues, but incompatible with the more spatially constrained CYP21A2 active site, as has been accomplished for abiraterone.” left out
Selected inhibitors were tested for off-target inhibition of purified recombinant human CYP3A4 nifedipine metabolism and CYP2D6 dextromethorphan metabolism as described with minor modifications. […] Inhibition of steroidogenic cytochrome P450 21A2 progesterone 21-hydroxylation was evaluated as reported. […]

BJ hTERT fibroblasts = experiment: Proliferation screening in non-cancerous fibroblasts; format: cell-based; conditions: 10 µM, 48 h
Protocol: Next, we tested the effect of compounds 1a–1e on prostate cancer derived cell lines. The anti-proliferative activity was determined in vitro by adding 10 µM compound to each of three prostate cancer cell lines (LNCaP, DU145, and PC3). As an additional comparison, immortalized non-cancerous fibroblasts (BJ hTERT) were used. These cancer cell lines are considered the classic standard of PCa cell culture. Since these cell lines grew at very different rates, inhibition of growth rate (GR) was used as a metric. All compounds except 1e were non-toxic to non-cancerous cells. Compounds 1a and 1c were both cytotoxic in the PC3 cell line (Figure 3). […] DU145 cells were weakly affected by only compound 1e with growth rate inhibition more than 50% (GR < 0.5). […] We observed substantial susceptibility of PC3 cells in comparison to DU145 (see Supplementary Materials S3 for GR50 in PC3 cells). These two cell lines are similar in many respects. […]
as §5

cytochrome P450 21A2 = target: T4, cytochrome P450 21A2 (Homo sapiens, UniProt P08686); experiment: CYP21A2 progesterone 21-hydroxylation inhibition assay; format: biochemical
T4 construct: made in house
T4 sequence (P08686 1-495): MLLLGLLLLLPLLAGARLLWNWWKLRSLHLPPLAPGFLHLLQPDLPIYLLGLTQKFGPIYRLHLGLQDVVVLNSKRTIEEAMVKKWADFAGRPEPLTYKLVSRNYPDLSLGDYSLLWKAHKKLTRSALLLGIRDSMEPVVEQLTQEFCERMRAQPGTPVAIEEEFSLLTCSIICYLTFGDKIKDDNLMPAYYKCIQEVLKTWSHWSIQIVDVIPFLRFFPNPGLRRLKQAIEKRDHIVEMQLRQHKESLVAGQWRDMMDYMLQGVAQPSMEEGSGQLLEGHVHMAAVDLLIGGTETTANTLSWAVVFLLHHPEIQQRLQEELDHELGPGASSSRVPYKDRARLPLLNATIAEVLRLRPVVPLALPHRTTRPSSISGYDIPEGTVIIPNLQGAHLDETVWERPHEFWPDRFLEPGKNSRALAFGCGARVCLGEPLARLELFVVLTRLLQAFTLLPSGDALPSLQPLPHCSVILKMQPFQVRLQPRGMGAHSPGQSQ
Description: as §1, §2, §3

human CYP17A1 [2] = target: T5, human CYP17A1 (Homo sapiens, UniProt P05093); experiment: Cytochrome P450 17A1 progesterone 17α-hydroxylation inhibition assay; format: biochemical; conditions: recombinant purified CYP17A1
T5 construct: made in house
T5 sequence (P05093 24-508 limits assumed): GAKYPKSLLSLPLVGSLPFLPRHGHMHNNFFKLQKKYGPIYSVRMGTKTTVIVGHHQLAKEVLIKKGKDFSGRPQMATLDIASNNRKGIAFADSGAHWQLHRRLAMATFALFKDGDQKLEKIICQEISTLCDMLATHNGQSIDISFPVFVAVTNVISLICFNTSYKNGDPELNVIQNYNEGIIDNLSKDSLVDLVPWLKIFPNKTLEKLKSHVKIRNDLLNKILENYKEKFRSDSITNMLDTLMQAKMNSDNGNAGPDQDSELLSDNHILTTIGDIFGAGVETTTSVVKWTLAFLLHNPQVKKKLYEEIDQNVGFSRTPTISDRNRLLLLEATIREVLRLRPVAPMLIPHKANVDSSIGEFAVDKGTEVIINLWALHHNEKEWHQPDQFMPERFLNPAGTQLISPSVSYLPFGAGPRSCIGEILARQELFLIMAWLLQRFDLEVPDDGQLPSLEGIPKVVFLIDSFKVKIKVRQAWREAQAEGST
Protocol: Regardless of their binding affinity, all compounds were tested for their ability to inhibit progesterone 17α-hydroxylation by recombinant purified CYP17A1 (Supplementary Materials S2).
Purified recombinant human CYP17A1 (20 pmol) and human full-length cytochrome P450 reductase (80 pmol) were used to convert progesterone (purchased from Acros Organics, Fair Lawn, NJ, USA) (6 µM) to 17α-hydroxyprogesterone. Test inhibitors were dissolved in DMSO and initially tested in concentrations ranging from 1.3 to 41 µM. In subsequent assays the range of inhibitor concentrations was optimized to best define the IC50 of individual compounds. Reactions were run and the 17α -hydroxyprogesterone product measured by LC-MS as previously published.
IC50 curves for compounds inhibiting CYP17A1 progesterone 17-hydroxylation (black circles),
CYP21A2 progesterone 21-hydroxylation (red diamonds), CYP3A4 nifedipine metabolism
(green squares), and CYP2D6 quinidine metabolism (blue triangles).
as §4

[3] = target: T2, human cytochrome P450 17A1; conditions: ref [10]; read-out: CYP17A1 Kd; cited from earlier work
human CYP17A1 [4] = target: T5, human CYP17A1; design: method as in PMID 28373265; conditions: ref [11]; cited from earlier work

T3 sequence (P08684 whole entry): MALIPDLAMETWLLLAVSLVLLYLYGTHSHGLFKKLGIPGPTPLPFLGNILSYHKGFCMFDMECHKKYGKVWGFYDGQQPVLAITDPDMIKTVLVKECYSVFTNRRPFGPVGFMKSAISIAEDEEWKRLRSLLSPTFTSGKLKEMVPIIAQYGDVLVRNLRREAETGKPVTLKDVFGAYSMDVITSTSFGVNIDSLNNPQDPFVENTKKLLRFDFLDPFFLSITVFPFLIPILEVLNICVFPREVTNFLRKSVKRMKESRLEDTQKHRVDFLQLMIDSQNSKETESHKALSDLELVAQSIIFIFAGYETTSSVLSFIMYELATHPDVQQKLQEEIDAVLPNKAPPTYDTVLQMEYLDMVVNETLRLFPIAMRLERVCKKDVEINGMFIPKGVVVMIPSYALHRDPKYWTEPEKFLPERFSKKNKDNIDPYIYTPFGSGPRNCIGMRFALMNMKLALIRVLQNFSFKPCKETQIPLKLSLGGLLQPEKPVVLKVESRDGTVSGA
T1 sequence (P10635 whole entry): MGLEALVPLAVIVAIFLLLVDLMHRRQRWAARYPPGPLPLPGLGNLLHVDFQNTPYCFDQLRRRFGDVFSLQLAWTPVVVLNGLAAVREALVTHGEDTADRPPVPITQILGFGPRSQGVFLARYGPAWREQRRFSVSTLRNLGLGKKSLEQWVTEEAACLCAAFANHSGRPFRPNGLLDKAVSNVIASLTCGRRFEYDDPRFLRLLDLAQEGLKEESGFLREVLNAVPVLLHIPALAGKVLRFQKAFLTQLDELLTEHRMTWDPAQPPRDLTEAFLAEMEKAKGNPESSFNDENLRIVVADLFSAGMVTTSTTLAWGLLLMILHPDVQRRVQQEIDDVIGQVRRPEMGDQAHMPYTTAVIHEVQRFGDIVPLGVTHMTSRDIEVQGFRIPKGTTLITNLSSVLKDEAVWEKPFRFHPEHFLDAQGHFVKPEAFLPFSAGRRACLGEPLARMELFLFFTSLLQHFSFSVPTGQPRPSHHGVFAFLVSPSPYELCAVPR

SMILES | IC50 (CYP2D6) [nM] | Kd [1] [nM] | Antiproliferative response in PC3 cells (growth rate inhibition, in words) (PC3 cells) | IC50 (human CYP3A4) [nM] | Toxicity to non-cancerous cells (BJ hTERT fibroblasts) (BJ hTERT fibroblasts) | IC50 (cytochrome P450 21A2; progesterone 21-hydroxylation) [nM] | Selectivity for CYP17A1 over CYP21A2 inhibition (cytochrome P450 21A2; ratio of IC50 values) | IC50 (human CYP17A1 [2]) [nM] | Kd [3] [nM] | IC50 (human CYP17A1 [4]) [nM]
c1cncc(Nc2ccc(-n3cnc4ccccc43)cc2)c1 [Compound 1c] | > 10000 | 96 ± 22 | cytotoxic; also recorded: high cytotoxicity | > 10000 | non-toxicity | 1500 ± 670 | two-fold | 830 ± 190 |  | 
c1ccc(Nc2ccc(-n3cnc4ccccc43)cc2)nc1 [Compound 1b] |  | 420 ± 70 |  |  |  |  |  | > 10000 |  | 
C[C@]12CC[C@H](O)CC1=CC[C@@H]1[C@@H]2CC[C@]2(C)C(c3cccnc3)=CC[C@@H]12 [Abiraterone] |  |  | low antiproliferative activity |  |  |  |  |  | < 100 | 80
